According to ChEMBL document CHEMBL3112480, “γ-Alkylidene-γ-lactones and isobutylpyrrol-2(5H)-ones analogues to rubrolides as inhibitors of biofilm formation by gram-positive and gram-negative bacteria” (Bioorg Med Chem Lett, 2014):
≈ marks a conversion by molar mass, not a printed value.

Key:
Staphylococcus aureus [1] = test: Antibacterial activity against Staphylococcus aureus ATCC 25923 assessed as effect on planktonic growth at 10.9 ug/ml after 20 hrs relative to control; assay type: functional
Pseudomonas aeruginosa [2] = test: Antibacterial activity against Pseudomonas aeruginosa ATCC 27853 assessed as effect on planktonic growth at 1.37 ug/ml after 20 hrs relative to control; assay type: functional
Streptococcus mutans [3] = test: Antibacterial activity against Streptococcus mutans ATCC 25175 assessed as effect on planktonic growth at 0.68 ug/ml after 20 hrs relative to control; assay type: functional
Staphylococcus aureus [4] = test: Antibacterial activity against Staphylococcus aureus ATCC 25923 assessed as effect on planktonic growth at 87.5 ug/ml after 20 hrs relative to control; assay type: functional
[5] = tested on: Staphylococcus epidermidis; test: Antibacterial activity against Staphylococcus epidermidis ATCC 35547 assessed as effect on planktonic growth at 1.37 ug/ml after 20 hrs relative to control; assay type: functional
Pseudomonas aeruginosa [6] = test: Antibacterial activity against Pseudomonas aeruginosa ATCC 27853 assessed as effect on planktonic growth at 5.5 ug/ml after 20 hrs relative to control; assay type: functional
[7] = tested on: Staphylococcus epidermidis; test: Antibacterial activity against Staphylococcus epidermidis ATCC 35547 assessed as effect on planktonic growth at 0.17 ug/ml after 20 hrs relative to control; assay type: functional
Pseudomonas aeruginosa [8] = test: Antibacterial activity against Pseudomonas aeruginosa ATCC 27853 assessed as effect on planktonic growth at 21.9 ug/ml after 20 hrs relative to control; assay type: functional
Pseudomonas aeruginosa [9] = test: Antibacterial activity against Pseudomonas aeruginosa ATCC 27853 assessed as effect on planktonic growth at 2.73 ug/ml after 20 hrs relative to control; assay type: functional
[10] = tested on: Staphylococcus epidermidis; test: Antibacterial activity against Staphylococcus epidermidis ATCC 35547 assessed as effect on planktonic growth at 5.5 ug/ml after 20 hrs relative to control; assay type: functional
Streptococcus mutans [11] = test: Antibacterial activity against Streptococcus mutans ATCC 25175 assessed as effect on planktonic growth at 5.5 ug/ml after 20 hrs relative to control; assay type: functional
Staphylococcus aureus [12] = test: Antibacterial activity against Staphylococcus aureus ATCC 25923 assessed as effect on planktonic growth at 0.34 ug/ml after 20 hrs relative to control; assay type: functional
[13] = tested on: Staphylococcus epidermidis; test: Antibacterial activity against Staphylococcus epidermidis ATCC 35547 assessed as effect on planktonic growth at 87.5 ug/ml after 20 hrs relative to control; assay type: functional
[14] = tested on: Staphylococcus epidermidis; test: Antibacterial activity against Staphylococcus epidermidis ATCC 35547 assessed as effect on planktonic growth at 10.9 ug/ml after 20 hrs relative to control; assay type: functional
Pseudomonas aeruginosa [15] = test: Antibacterial activity against Pseudomonas aeruginosa ATCC 27853 assessed as effect on planktonic growth at 10.9 ug/ml after 20 hrs relative to control; assay type: functional
[16] = tested on: Staphylococcus epidermidis; test: Antibacterial activity against Staphylococcus epidermidis ATCC 35547 assessed as effect on planktonic growth at 21.9 ug/ml after 20 hrs relative to control; assay type: functional
[17] = tested on: Staphylococcus epidermidis; test: Antibacterial activity against Staphylococcus epidermidis ATCC 35547 assessed as effect on planktonic growth at 43.8 ug/ml after 20 hrs relative to control; assay type: functional
Streptococcus mutans [18] = test: Antibacterial activity against Streptococcus mutans ATCC 25175 assessed as effect on planktonic growth at 0.34 ug/ml after 20 hrs relative to control; assay type: functional
Pseudomonas aeruginosa [19] = test: Antibacterial activity against Pseudomonas aeruginosa ATCC 27853 assessed as effect on planktonic growth at 87.5 ug/ml after 20 hrs relative to control; assay type: functional
Streptococcus mutans [20] = test: Antibacterial activity against Streptococcus mutans ATCC 25175 assessed as effect on planktonic growth at 21.9 ug/ml after 20 hrs relative to control; assay type: functional
Staphylococcus aureus [21] = test: Antibacterial activity against Staphylococcus aureus ATCC 25923 assessed as effect on planktonic growth at 2.73 ug/ml after 20 hrs relative to control; assay type: functional
Staphylococcus aureus [22] = test: Antibacterial activity against Staphylococcus aureus ATCC 25923 assessed as effect on planktonic growth at 5.5 ug/ml after 20 hrs relative to control; assay type: functional
[23] = tested on: Staphylococcus epidermidis; test: Antibacterial activity against Staphylococcus epidermidis ATCC 35547 assessed as inhibition of biofilm formation after 20 hrs by crystal-violet staining method; assay type: functional, organism-based; settings: for IC50: ATCC 35547, 20 h
Pseudomonas aeruginosa [24] = test: Antibacterial activity against Pseudomonas aeruginosa ATCC 27853 assessed as effect on planktonic growth at 0.34 ug/ml after 20 hrs relative to control; assay type: functional
Streptococcus mutans [25] = test: Antibacterial activity against Streptococcus mutans ATCC 25175 assessed as effect on planktonic growth at 1.37 ug/ml after 20 hrs relative to control; assay type: functional
Staphylococcus aureus [26] = test: Antibacterial activity against Staphylococcus aureus ATCC 25923 assessed as effect on planktonic growth at 1.37 ug/ml after 20 hrs relative to control; assay type: functional
[27] = tested on: Staphylococcus epidermidis; test: Antibacterial activity against Staphylococcus epidermidis ATCC 35547 assessed as effect on planktonic growth at 2.73 ug/ml after 20 hrs relative to control; assay type: functional
Streptococcus mutans [28] = test: Antibacterial activity against Streptococcus mutans ATCC 25175 assessed as effect on planktonic growth at 87.5 ug/ml after 20 hrs relative to control; assay type: functional
Streptococcus mutans [29] = test: Antibacterial activity against Streptococcus mutans ATCC 25175 assessed as effect on planktonic growth at 10.9 ug/ml after 20 hrs relative to control; assay type: functional
Pseudomonas aeruginosa [30] = test: Antibacterial activity against Pseudomonas aeruginosa ATCC 27853 assessed as effect on planktonic growth at 43.8 ug/ml after 20 hrs relative to control; assay type: functional
Streptococcus mutans [31] = test: Antibacterial activity against Streptococcus mutans ATCC 25175 assessed as effect on planktonic growth at 2.73 ug/ml after 20 hrs relative to control; assay type: functional
Pseudomonas aeruginosa [32] = test: Antibacterial activity against Pseudomonas aeruginosa ATCC 27853 assessed as effect on planktonic growth at 0.68 ug/ml after 20 hrs relative to control; assay type: functional
Staphylococcus aureus [33] = test: Antibacterial activity against Staphylococcus aureus ATCC 25923 assessed as effect on planktonic growth at 43.8 ug/ml after 20 hrs relative to control; assay type: functional
Staphylococcus aureus [34] = test: Antibacterial activity against Staphylococcus aureus ATCC 25923 assessed as effect on planktonic growth at 0.17 ug/ml after 20 hrs relative to control; assay type: functional
Streptococcus mutans [35] = test: Antibacterial activity against Streptococcus mutans ATCC 25175 assessed as effect on planktonic growth at 43.8 ug/ml after 20 hrs relative to control; assay type: functional
Streptococcus mutans [36] = test: Antibacterial activity against Streptococcus mutans ATCC 25175 assessed as effect on planktonic growth at 0.17 ug/ml after 20 hrs relative to control; assay type: functional
[37] = tested on: Staphylococcus epidermidis; test: Antibacterial activity against Staphylococcus epidermidis ATCC 35547 assessed as effect on planktonic growth at 0.68 ug/ml after 20 hrs relative to control; assay type: functional
Pseudomonas aeruginosa [38] = test: Antibacterial activity against Pseudomonas aeruginosa ATCC 27853 assessed as effect on planktonic growth at 0.17 ug/ml after 20 hrs relative to control; assay type: functional
[39] = tested on: Staphylococcus epidermidis; test: Antibacterial activity against Staphylococcus epidermidis ATCC 35547 assessed as effect on planktonic growth at 0.34 ug/ml after 20 hrs relative to control; assay type: functional
Staphylococcus aureus [40] = test: Antibacterial activity against Staphylococcus aureus ATCC 25923 assessed as effect on planktonic growth at 0.68 ug/ml after 20 hrs relative to control; assay type: functional
Staphylococcus aureus [41] = test: Antibacterial activity against Staphylococcus aureus ATCC 25923 assessed as effect on planktonic growth at 21.9 ug/ml after 20 hrs relative to control; assay type: functional
Pseudomonas aeruginosa [42] = test: Antibacterial activity against Pseudomonas aeruginosa ATCC 27853 assessed as inhibition of biofilm formation after 20 hrs by crystal-violet staining method; assay type: functional, organism-based

COc1ccc(Br)cc1C1=C(Br)C(=O)N(CC(C)C)C1(O)Cc1ccc(Br)cc1 (configuration not stated)
Activity (Staphylococcus aureus [1]): -11.3%
Activity (Pseudomonas aeruginosa [2]): -4.5%
Activity (Streptococcus mutans [3]): -8%
Activity (Staphylococcus aureus [4]): 7.4%
Activity [5]: 8%
Activity (Pseudomonas aeruginosa [6]): 58.3%
Activity [7]: 2.1%
Activity (Pseudomonas aeruginosa [8]): 58.3%
Activity (Pseudomonas aeruginosa [9]): 0.8%
Activity [10]: -2.4%
Activity (Streptococcus mutans [11]): -3%
Activity (Staphylococcus aureus [12]): -3.4%
Activity [13]: 29.8%
Activity [14]: 11.2%
Activity (Pseudomonas aeruginosa [15]): 64.1%
Activity [16]: 55.8%
Activity [17]: 43.6%
Activity (Streptococcus mutans [18]): -7%
Activity (Pseudomonas aeruginosa [19]): 39.4%
Activity (Streptococcus mutans [20]): -13.7%
Activity (Staphylococcus aureus [21]): -17.9%
Activity (Staphylococcus aureus [22]): -9%
inhibition [23]: Dose-dependent effect
IC50 [23]: 13.3 µg/mL (≈ 22.6 µM)
Activity (Pseudomonas aeruginosa [24]): -5.7%
Activity (Streptococcus mutans [25]): 4%
Activity (Staphylococcus aureus [26]): -14.8%
Activity [27]: 4.8%
Activity (Streptococcus mutans [28]): 0.2%
Activity (Streptococcus mutans [29]): -8%
Activity (Pseudomonas aeruginosa [30]): 63.9%
Activity (Streptococcus mutans [31]): -6%
Activity (Pseudomonas aeruginosa [32]): -7%
Activity (Staphylococcus aureus [33]): -13.7%
Activity (Staphylococcus aureus [34]): 1.1%
Activity (Streptococcus mutans [35]): -17.9%
Activity (Streptococcus mutans [36]): -13.2%
Activity [37]: -5.4%
Activity (Pseudomonas aeruginosa [38]): -4%
Activity [39]: 4.3%
Activity (Staphylococcus aureus [40]): -10.8%
Activity (Staphylococcus aureus [41]): -15.6%
inhibition (Pseudomonas aeruginosa [42]): Dose-dependent effect

COc1ccc(Cl)cc1C1=C(Br)C(=O)N(CC(C)C)/C1=C/c1ccccc1Br
Activity (Staphylococcus aureus [1]): -4.6%
Activity (Pseudomonas aeruginosa [2]): -5.8%
Activity (Streptococcus mutans [3]): -13.4%
Activity (Staphylococcus aureus [4]): 3.6%
Activity [5]: -0.4%
Activity (Pseudomonas aeruginosa [6]): -5.1%
Activity [7]: 1.9%
Activity (Pseudomonas aeruginosa [8]): -14.6%
Activity (Pseudomonas aeruginosa [9]): -5.8%
Activity [10]: 2.7%
Activity (Streptococcus mutans [11]): 1.8%
Activity (Staphylococcus aureus [12]): -0.7%
Activity [13]: 31.5%
Activity [14]: -0.4%
Activity (Pseudomonas aeruginosa [15]): -18.1%
Activity [16]: 10.6%
Activity [17]: 21.8%
Activity (Streptococcus mutans [18]): -18.8%
Activity (Pseudomonas aeruginosa [19]): -9.1%
Activity (Streptococcus mutans [20]): 7%
Activity (Staphylococcus aureus [21]): 7.5%
Activity (Staphylococcus aureus [22]): 0.2%
inhibition [23]: Dose-dependent effect
IC50 [23]: 33.2 µg/mL (≈ 63.2 µM)
Activity (Pseudomonas aeruginosa [24]): -3.9%
Activity (Streptococcus mutans [25]): -8.2%
Activity (Staphylococcus aureus [26]): -2.5%
Activity [27]: -3.7%
Activity (Streptococcus mutans [28]): 6.4%
Activity (Streptococcus mutans [29]): -4.3%
Activity (Pseudomonas aeruginosa [30]): -14.6%
Activity (Streptococcus mutans [31]): -3.3%
Activity (Pseudomonas aeruginosa [32]): -7.5%
Activity (Staphylococcus aureus [33]): -4.3%
Activity (Staphylococcus aureus [34]): 2.7%
Activity (Streptococcus mutans [35]): 1.5%
Activity (Streptococcus mutans [36]): -19.5%
Activity [37]: -2.2%
Activity (Pseudomonas aeruginosa [38]): -1.8%
Activity [39]: 5.5%
Activity (Staphylococcus aureus [40]): 3%
Activity (Staphylococcus aureus [41]): -6.2%
inhibition (Pseudomonas aeruginosa [42]): Dose-dependent effect
IC50 (Pseudomonas aeruginosa [42]; ATCC 27853, 20 h): > 87.5 µg/mL
